According to patent EP0584256B1, “COMPOUNDS AND PHARMACEUTICAL COMPOSITIONS FOR DETECTING AND LOCALIZING TISSUES HAVING NEUROKININE 1 RECEPTORS” (MALLINCKRODT MEDICAL, INC., priority 1991, dated 1999):

Assays:
SP-receptors [1] = test: Displacement of / binding of [125I]BH-SP, human glioma membranes; details: Figure 1
Protocol: (§1) Binding studies in vitro are carried out in a standardized system by studying the displacement of ^125I-Bolton Hunter substance P {[^125I]BH-SP} by the above-synthetized labelled peptides.

[2] = assay type: in vitro ADME, rat
Text: A liver perfusion model is used as described by Docter et al. in Endocrinology 1990, 126, 451-459. It is a generally accepted fact in this art, that handling of bio-active substances by the isolated perfused rat liver according to this model has a very good predictable value for the appearance of metabolites of the used substance in the circulation of human beings. In short, in this model isolated livers are perfused in a recirculating system with Krebs-Ringer medium supplemented with 1% bovine serum albumin and 10 mM glucose. After 0.5 hr preperfusion, experiments are started by addition of the labelled substance P (5 µCi) to the medium. At regular time points medium samples are taken. Medium samples are analyzed by column chromatography, using Seppak^(R) C-18 columns.
The average results are presented in Figures 4-6, showing the disappearance of the total radioactivity ("tot. act.") and of the peptide-bound radioactivity ("protein") with concomitant appearance of non-peptide bound radioactivity in the circulating medium as a degradation product.
Figures 7-9 show the excretion of the tested labelled peptides into the bile.

SP-receptors [3] = test: Displacement of / binding of [125I]BH-SP, rat brain cortex membranes; details: membranes of the cortex of rat brains; Figure 1
Protocol: as §1

[4] = tested on: human meningioma membranes; test: Binding of [125I]BH-SP to human meningioma membranes; details: Figure 1
Protocol: as §1

specific binding to membranes (SP-receptors [1]): specifically binds | specific binding to membranes (SP-receptors [3]): specifically binds | specific binding to membranes [4]: not
Substance: [^125I]BH-SP: ^125I-Bolton Hunter substance P, known radioligand from in vitro binding studies
liver metabolic clearance [2]: relatively fast
